Data taken from PubChem BioAssay AID330 (DTP/NCI, 2004).
Where “and” joins values, the source holds several entries; their conditions need not be identical. Equal values may be shown once. Inconclusive results and toxic doses are left out. How the source made its calls: active means survival T/C of 150% or more; inactive means T/C below 125% in these data.

Tested on: P388 leukemia ip, CD2F1 mice, survival T/C
Test: NCI In Vivo Anticancer Drug Screen. Data for tumor model P388 Leukemia (intraperitoneal) in CD2F1 (CDF1) mice
Conditions: endpoint: median survival time, higher = longer survival
Method in brief: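 Mice carrying the transplanted tumor received test compound or vehicle. Survival was recorded in each group, and the value is the treated-group measurement divided by that of the vehicle-treated control group.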

[1] = dose: 50.0 mg/kg/injection, schedule: Q01DX005 (ip), vehicle: saline
[2] = dose: 100.0 mg/kg/injection, schedule: Q01DX005 (ip), vehicle: saline
[3] = dose: 200.0 mg/kg/injection, schedule: Q01DX005 (ip), vehicle: saline
[4] = dose: 25.0 mg/kg/injection, schedule: Q01DX009 (ip), vehicle: saline with Tween-80
[5] = dose: 50.0 mg/kg/injection, schedule: Q01DX009 (ip), vehicle: saline with Tween-80
[6] = dose: 100.0 mg/kg/injection, schedule: Q01DX009 (ip), vehicle: saline with Tween-80
[7] = dose: 200.0 mg/kg/injection, schedule: Q01DX009 (ip), vehicle: saline with Tween-80
[8] = dose: 50.0 mg/kg/injection, schedule: Q01DX005 (ip), vehicle: Klucel (hydroxypropylcellulose) (HPC)
[9] = dose: 12.5 mg/kg/injection, schedule: Q01DX009 (ip), vehicle: saline with Tween-80

Measured: T/C

O=c1[nH]cnc2cc(N3CCN(Cc4ccccc4)CC3)c([N+](=O)[O-])cc12
inactive: dose: 100.0 mg/kg/injection, schedule: Q04DX003 (ip), vehicle: Klucel (hydroxypropylcellulose) (HPC) 102 % of control | dose: 200.0 mg/kg/injection, schedule: Q04DX003 (ip), vehicle: Klucel (hydroxypropylcellulose) (HPC) 98 % of control | dose: 400.0 mg/kg/injection, schedule: Q04DX003 (ip), vehicle: Klucel (hydroxypropylcellulose) (HPC) 106 % of control

NC1CNC(=O)NC1=O (stereo unspecified)
inactive: [1] 101 % of control | [2] 100 % of control | [3] 101 % of control

CCC1(C)C(C#N)C(=O)NC(=O)C1C#N (stereo unspecified)
inactive: [4] 95 % of control | [5] 95 % of control

O=C(O)CC(Nc1ccc([N+](=O)[O-])cc1[N+](=O)[O-])C(=O)O (stereo unspecified)
inactive: [1] 100 % of control | [2] 106 % of control | [3] 103 % of control

C[N+](C)(C)[N-]C(=N)c1ccccc1
inactive: dose: 25.0 mg/kg/injection, schedule: Q01DX001 (ip), vehicle: suspension in saline 102 % of control | dose: 50.0 mg/kg/injection, schedule: Q01DX001 (ip), vehicle: suspension in saline 104 % of control | dose: 100.0 mg/kg/injection, schedule: Q01DX001 (ip), vehicle: suspension in saline 99 % of control and 110 % of control

O=C1/C(=C/c2cccc(O)c2O)SC(=S)N1CCCN1CCOCC1
inactive: [5] 98 % of control | [6] 107 % of control | [7] 92 % of control

O=C(N/N=C/c1ccccc1O)N/N=C/c1ccccc1O
inactive: [5] 96 % of control | [6] 96 % of control | [7] 96 % of control | dose: 400.0 mg/kg/injection, schedule: Q01DX009 (ip), vehicle: saline with Tween-80 87 % of control

CCCCCCC[CH2][Sn]([CH2]CCCCCCC)([CH2]CCCCCCC)[O]C(C)=O
inactive: dose: 50.0 mg/kg/injection, schedule: Q01DX009 (ip), vehicle: saline 97 % of control | dose: 100.0 mg/kg/injection, schedule: Q01DX009 (ip), vehicle: saline 100 % of control | dose: 200.0 mg/kg/injection, schedule: Q01DX009 (ip), vehicle: saline 94 % of control

C=C1C(=O)OC2/C=C(CO)/C=C\C3OC3(C)CC(OC(=O)/C(=C/C)CO)C12 (stereo unspecified)
inactive: dose: 12.5 mg/kg/injection, schedule: Q01DX005 (ip), vehicle: Klucel (hydroxypropylcellulose) (HPC) 106 % of control and 97 % of control | dose: 25.0 mg/kg/injection, schedule: Q01DX005 (ip), vehicle: Klucel (hydroxypropylcellulose) (HPC) 99 % of control and 103 % of control and 116 % of control | [8] 109 % of control and 111 % of control

CCCCOc1ccc(Nc2c3ccccc3nc3ccccc23)cc1
inactive: [9] 98 % of control and 91 % of control | [4] 98 % of control and 106 % of control | [5] 121 % of control

Cc1ccc(-c2csc3nc(C)c(CN4CCCCC4)c(=O)n23)cc1
inactive: dose: 75.0 mg/kg/injection, schedule: Q04DX002 (ip), vehicle: Klucel (hydroxypropylcellulose) (HPC) 113 % of control | dose: 150.0 mg/kg/injection, schedule: Q04DX002 (ip), vehicle: Klucel (hydroxypropylcellulose) (HPC) 103 % of control | dose: 300.0 mg/kg/injection, schedule: Q04DX002 (ip), vehicle: Klucel (hydroxypropylcellulose) (HPC) 113 % of control

O=c1oc2ccccc2c(O)c1C(c1ccc(Cl)cc1)c1c(O)c2ccccc2oc1=O
inactive: dose: 15.0 mg/kg/injection, schedule: Q01DX005 (ip), vehicle: saline with Tween-80 94 % of control | dose: 30.0 mg/kg/injection, schedule: Q01DX005 (ip), vehicle: saline with Tween-80 93 % of control

O=C(O)CSc1nnc(C2CCC(=O)N2Cc2ccccc2)o1 (stereo unspecified)
inactive: dose: 100.0 mg/kg/injection, schedule: Q01DX001 (ip), vehicle: saline with Tween-80 99 % of control | dose: 200.0 mg/kg/injection, schedule: Q01DX001 (ip), vehicle: saline with Tween-80 101 % of control | dose: 400.0 mg/kg/injection, schedule: Q01DX001 (ip), vehicle: saline with Tween-80 95 % of control

CCOC(=O)c1ccc(NC(CCN2CCN(CCC(=NC(C)(C)C)Nc3ccc(C(=O)OCC)cc3)CC2)=NC(C)(C)C)cc1
inactive: dose: 50.0 mg/kg/injection, schedule: Q01DX009 (ip), vehicle: Klucel (hydroxypropylcellulose) (HPC) 96 % of control | dose: 100.0 mg/kg/injection, schedule: Q01DX009 (ip), vehicle: Klucel (hydroxypropylcellulose) (HPC) 92 % of control | dose: 200.0 mg/kg/injection, schedule: Q01DX009 (ip), vehicle: Klucel (hydroxypropylcellulose) (HPC) 90 % of control

CSc1ncc(Br)c(Sc2nc(N)nc3nc[nH]c23)n1
inactive: [9] 95 % of control | [4] 86 % of control

C[Si](C)(C)c1cnc(N)[nH]c1=O
inactive: [4] 115 % of control | [5] 120 % of control | [6] 120 % of control

COc1cccc2c1C(=O)c1c(O)c3c(c(O)c1C2=O)CC(O)(C(C)=O)CC3OC1CCN(c2ccccc2)CC(C)O1 (stereo unspecified)
inactive: dose: 3.13 mg/kg/injection, schedule: Q04DX003 (ip), vehicle: distilled water + Tween-80 96 % of control | dose: 6.25 mg/kg/injection, schedule: Q04DX003 (ip), vehicle: distilled water + Tween-80 98 % of control | dose: 12.5 mg/kg/injection, schedule: Q04DX003 (ip), vehicle: distilled water + Tween-80 100 % of control | dose: 25.0 mg/kg/injection, schedule: Q04DX003 (ip), vehicle: distilled water + Tween-80 98 % of control | dose: 50.0 mg/kg/injection, schedule: Q04DX003 (ip), vehicle: distilled water + Tween-80 105 % of control

C=C(C)C12OC3(CCCCCCCCC)OC1C1C4OC4(CO)C(O)C4(O)C(=O)C(C)=CC4C1(O3)C(C)C2OC(C)=O (stereo unspecified)
inactive: dose: 12.5 micrograms/kg/injection, schedule: Q01DX009 (ip), vehicle: saline + alcohol 101 % of control | dose: 25.0 micrograms/kg/injection, schedule: Q01DX009 (ip), vehicle: saline + alcohol 104 % of control | dose: 50.0 micrograms/kg/injection, schedule: Q01DX009 (ip), vehicle: saline + alcohol 104 % of control | dose: 100.0 micrograms/kg/injection, schedule: Q01DX009 (ip), vehicle: saline + alcohol 104 % of control | dose: 200.0 micrograms/kg/injection, schedule: Q01DX009 (ip), vehicle: saline + alcohol 123 % of control

CCOC(=O)N1C=CC(CC(=O)N(CC)CC)C=C1 (tested in a mixture with another compound)
inactive: dose: 60.0 mg/kg/injection, schedule: Q01DX005 (ip), vehicle: saline 102 % of control | dose: 120.0 mg/kg/injection, schedule: Q01DX005 (ip), vehicle: saline 96 % of control | dose: 240.0 mg/kg/injection, schedule: Q01DX005 (ip), vehicle: saline 108 % of control

COc1ccc2c(C)cc(N/N=C/c3ccc(OC)c4ccccc34)nc2c1
inactive: [8] 98 % of control | dose: 100.0 mg/kg/injection, schedule: Q01DX005 (ip), vehicle: Klucel (hydroxypropylcellulose) (HPC) 102 % of control | dose: 200.0 mg/kg/injection, schedule: Q01DX005 (ip), vehicle: Klucel (hydroxypropylcellulose) (HPC) 94 % of control

Cc1cc(C)c(OC2=C(c3c(C)cc(C)cc3C)C(=O)c3ccccc32)c(C)c1
inactive: [5] 94 % of control | [6] 94 % of control | [7] 86 % of control

NC1=NN(Cc2nnc(-c3ccccc3)s2)C(=O)C1
inactive: dose: 60.0 mg/kg/injection, schedule: Q01DX005 (ip), vehicle: saline with Tween-80 93 % of control | dose: 120.0 mg/kg/injection, schedule: Q01DX005 (ip), vehicle: saline with Tween-80 101 % of control | dose: 240.0 mg/kg/injection, schedule: Q01DX005 (ip), vehicle: saline with Tween-80 111 % of control

COc1ccc2c(c1)c1ccnc3ccc(=O)n2c31
inactive: dose: 0.83 mg/kg/injection, schedule: Q01DX009 (ip), vehicle: saline with Tween-80 98 % of control | dose: 1.65 mg/kg/injection, schedule: Q01DX009 (ip), vehicle: saline with Tween-80 109 % of control | dose: 3.29 mg/kg/injection, schedule: Q01DX009 (ip), vehicle: saline with Tween-80 109 % of control | dose: 6.58 mg/kg/injection, schedule: Q01DX009 (ip), vehicle: saline with Tween-80 109 % of control

CN(C)P1(=O)OCC(C)(C)CN1c1ccccc1 (stereo unspecified)
inactive: dose: 100.0 mg/kg/injection, schedule: Q04DX002 (ip), vehicle: saline 96 % of control | dose: 200.0 mg/kg/injection, schedule: Q04DX002 (ip), vehicle: saline 95 % of control | dose: 400.0 mg/kg/injection, schedule: Q04DX002 (ip), vehicle: saline 100 % of control

CC(=O)Nc1ccc(C(=O)/C=N\NC(N)=S)cc1
inactive: [5] 94 % of control | [6] 86 % of control | [7] 94 % of control

CCCCCCCCCCCC(=O)N(CCCC)CCCC
inactive: dose: 37.5 mg/kg/injection, schedule: Q01DX009 (ip), vehicle: Klucel (hydroxypropylcellulose) (HPC) 100 % of control | dose: 75.0 mg/kg/injection, schedule: Q01DX009 (ip), vehicle: Klucel (hydroxypropylcellulose) (HPC) 98 % of control | dose: 150.0 mg/kg/injection, schedule: Q01DX009 (ip), vehicle: Klucel (hydroxypropylcellulose) (HPC) 92 % of control
